ChEMBL document CHEMBL5233249, “Recent advancements in the development of heterocyclic anti-inflammatory agents” (Eur J Med Chem, 2020)
Each block holds one compound with its values, some of them ahead of it.

Columns and labels:
[1] = target: T1, Polyunsaturated fatty acid lipoxygenase ALOX15 (Homo sapiens, UniProt P16050); experiment: Inhibition of LOX (unknown origin) at 1 uM
T1 sequence (P16050 whole entry): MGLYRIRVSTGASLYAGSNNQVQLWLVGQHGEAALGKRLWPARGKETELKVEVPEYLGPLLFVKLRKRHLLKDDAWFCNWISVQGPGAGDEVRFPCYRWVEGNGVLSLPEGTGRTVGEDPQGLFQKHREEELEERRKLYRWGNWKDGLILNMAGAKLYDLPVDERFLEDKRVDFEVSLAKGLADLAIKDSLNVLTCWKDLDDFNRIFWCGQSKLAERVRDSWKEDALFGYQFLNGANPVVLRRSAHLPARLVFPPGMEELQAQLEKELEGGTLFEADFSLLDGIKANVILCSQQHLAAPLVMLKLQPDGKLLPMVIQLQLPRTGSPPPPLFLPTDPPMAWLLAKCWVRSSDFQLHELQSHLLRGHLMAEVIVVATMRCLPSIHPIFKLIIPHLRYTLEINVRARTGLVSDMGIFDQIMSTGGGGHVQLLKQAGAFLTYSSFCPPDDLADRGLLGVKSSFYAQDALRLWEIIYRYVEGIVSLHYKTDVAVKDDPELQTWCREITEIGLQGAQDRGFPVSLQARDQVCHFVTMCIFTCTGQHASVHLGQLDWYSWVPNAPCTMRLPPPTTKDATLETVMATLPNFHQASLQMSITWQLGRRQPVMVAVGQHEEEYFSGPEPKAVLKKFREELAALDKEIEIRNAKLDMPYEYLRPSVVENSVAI

[2] = target: T2, Prostaglandin G/H synthase 1 (Ovis aries, UniProt P05979); experiment: Inhibition of ovine COX-1 at 1 uM
T2 sequence (P05979 whole entry): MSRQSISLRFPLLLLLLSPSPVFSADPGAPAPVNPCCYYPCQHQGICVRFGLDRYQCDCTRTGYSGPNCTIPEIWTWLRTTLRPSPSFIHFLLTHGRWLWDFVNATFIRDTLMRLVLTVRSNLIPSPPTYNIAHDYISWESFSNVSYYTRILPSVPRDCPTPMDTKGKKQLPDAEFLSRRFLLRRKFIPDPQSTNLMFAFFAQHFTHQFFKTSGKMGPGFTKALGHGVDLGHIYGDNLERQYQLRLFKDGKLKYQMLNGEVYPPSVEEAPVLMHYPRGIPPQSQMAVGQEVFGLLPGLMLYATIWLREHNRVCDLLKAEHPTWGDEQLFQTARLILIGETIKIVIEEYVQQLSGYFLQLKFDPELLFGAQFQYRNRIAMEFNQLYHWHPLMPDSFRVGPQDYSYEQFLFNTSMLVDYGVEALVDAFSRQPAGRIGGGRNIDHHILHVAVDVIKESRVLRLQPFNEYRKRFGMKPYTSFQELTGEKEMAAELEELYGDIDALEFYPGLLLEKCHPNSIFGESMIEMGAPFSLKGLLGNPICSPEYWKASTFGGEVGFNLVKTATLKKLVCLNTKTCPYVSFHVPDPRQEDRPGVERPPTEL

RAW264.7 [3] = experiment: Anti-inflammatory activity in mouse RAW264.7 cells assessed as inhibition of LPS-induced TNFalpha production incubated for 1 hr by EIA relative to control; assay type: functional
RAW264.7 [4] = experiment: Anti-inflammatory activity in mouse RAW264.7 cells assessed as inhibition of LPS-induced IL-6 production incubated for 1 hr by EIA relative to control; assay type: functional
[5] = target: T3, Prostaglandin G/H synthase 2 (Homo sapiens, UniProt P35354); experiment: Inhibition of human recombinant COX-2 at 1 uM
T3 sequence (P35354 whole entry): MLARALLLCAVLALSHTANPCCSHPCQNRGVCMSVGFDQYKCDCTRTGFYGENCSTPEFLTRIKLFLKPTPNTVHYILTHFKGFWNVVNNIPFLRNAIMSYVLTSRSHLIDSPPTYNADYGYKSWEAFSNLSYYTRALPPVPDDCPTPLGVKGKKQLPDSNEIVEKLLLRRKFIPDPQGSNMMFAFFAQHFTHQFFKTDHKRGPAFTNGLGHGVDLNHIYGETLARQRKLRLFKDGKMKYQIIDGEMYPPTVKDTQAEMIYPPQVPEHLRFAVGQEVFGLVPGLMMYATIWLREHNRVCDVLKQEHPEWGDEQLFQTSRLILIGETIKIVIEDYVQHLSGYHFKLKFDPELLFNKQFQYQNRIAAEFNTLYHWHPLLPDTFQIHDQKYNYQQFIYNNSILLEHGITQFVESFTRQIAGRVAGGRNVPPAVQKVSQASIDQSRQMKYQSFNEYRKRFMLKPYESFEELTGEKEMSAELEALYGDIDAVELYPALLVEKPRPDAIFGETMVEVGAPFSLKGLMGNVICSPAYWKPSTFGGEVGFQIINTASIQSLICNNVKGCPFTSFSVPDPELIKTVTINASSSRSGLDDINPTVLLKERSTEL

[6] = target: T2, Prostaglandin G/H synthase 1; experiment: Inhibition of ovine COX-1 by EIA method
[7] = target: T4, Polyunsaturated fatty acid 5-lipoxygenase (Homo sapiens, UniProt P09917); experiment: Inhibition of 5-LOX (unknown origin) after 5 mins by colorimetric method
T4 sequence (P09917 whole entry): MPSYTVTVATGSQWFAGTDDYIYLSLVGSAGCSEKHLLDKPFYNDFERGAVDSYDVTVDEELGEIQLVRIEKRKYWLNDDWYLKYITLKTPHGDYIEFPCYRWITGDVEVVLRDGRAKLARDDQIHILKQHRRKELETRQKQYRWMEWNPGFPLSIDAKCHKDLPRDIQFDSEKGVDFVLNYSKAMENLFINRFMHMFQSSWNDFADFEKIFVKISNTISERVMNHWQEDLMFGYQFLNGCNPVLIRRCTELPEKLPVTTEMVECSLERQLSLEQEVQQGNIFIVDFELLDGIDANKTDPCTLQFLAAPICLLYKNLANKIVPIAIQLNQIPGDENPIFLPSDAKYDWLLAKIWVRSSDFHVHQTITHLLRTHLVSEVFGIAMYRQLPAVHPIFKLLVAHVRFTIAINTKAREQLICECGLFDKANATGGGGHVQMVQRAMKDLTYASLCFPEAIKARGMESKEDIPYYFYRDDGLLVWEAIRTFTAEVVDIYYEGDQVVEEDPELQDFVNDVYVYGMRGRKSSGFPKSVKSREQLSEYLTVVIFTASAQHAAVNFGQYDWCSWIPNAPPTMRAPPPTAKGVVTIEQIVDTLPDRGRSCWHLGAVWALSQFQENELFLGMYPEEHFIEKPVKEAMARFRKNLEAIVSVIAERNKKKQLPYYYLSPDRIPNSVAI

Rattus norvegicus [8] = experiment: Anti-inflammatory activity in Carageenan-induced paw edema Wistar rat model assessed as reduction in paw edema volume relative to control; assay type: functional; set-up: scale not given: the % may be the effect or the level left
[9] = target: T1, Polyunsaturated fatty acid lipoxygenase ALOX15; experiment: Inhibition of 15-LOX (unknown origin)
THP-1 = experiment: Anti-inflammatory activity in human THP-1 cells assessed as inhibition in IL-1beta release at 30 uM relative to control; assay type: functional; set-up: scale not given: the % may be the effect or the level left
Rattus norvegicus [10] = experiment: Anti-inflammatory activity in Carageenan-induced foot paw edema in Swiss albino rat assessed as reduction in volume of paw edema measured after 1 hr relative to control; assay type: functional; set-up: scale not given: the % may be the effect or the level left
Rattus norvegicus [11] = experiment: Anti-inflammatory activity in Carrageenan-induced paw edema in Wistar albino rat assessed as reduction in paw edema measured after 2 hr relative to control; assay type: functional; set-up: scale not given: the % may be the effect or the level left
Rattus norvegicus [12] = experiment: Anti-inflammatory activity against Carrageenan-induced paw edema in Wistar albino rat ulcerogenic activity assessed as reduction in severity index; assay type: functional
Rattus norvegicus [13] = experiment: Anti-inflammatory activity against Carrageenan-induced paw edema in PO dosed Wistar albino rat assessed as inhibition of edema measured after 1 hr relative to control; assay type: functional; set-up: scale not given: the % may be the effect or the level left
Mus musculus = experiment: Anti-inflammatory activity in Carrageenan-induced paw edema in PO dosed mouse at 100 mg/kg assessed as inhibition of edema measured after 3 hr relative to control; assay type: functional; set-up: scale not given: the % may be the effect or the level left
Rattus norvegicus [14] = experiment: Anti-inflammatory activity in Carrageenan-induced paw edema in Wistar albino rat assessed as reduction in paw edema measured after 3 hr relative to control; assay type: functional; set-up: scale not given: the % may be the effect or the level left
Rattus norvegicus [15] = experiment: Anti-inflammatory activity in Carrageenan-induced paw edema in PO dosed Swiss albino rat model at 30 mg/kg assessed as inhibition in volume of edema measured after 1 hrs relative to control; assay type: functional
Rattus norvegicus [16] = experiment: Anti-inflammatory activity in Carageenan-induced foot paw edema in Swiss albino rat assessed as reduction in volume of paw edema measured after 4 hr relative to control; assay type: functional; set-up: scale not given: the % may be the effect or the level left
Rattus norvegicus [17] = experiment: Anti-ulcerative activity in aspirin induced Wistar rat ulcer model assessed as inhibition of ulcer index at 20 mg/kg,po; assay type: functional
Rattus norvegicus [18] = experiment: Anti-inflammatory activity in Carrageenan-induced paw edema in Wistar albino rat assessed as reduction in paw edema measured after 1 hr relative to control; assay type: functional; set-up: scale not given: the % may be the effect or the level left
Rattus norvegicus [19] = experiment: Anti-inflammatory activity in Carageenan-induced foot paw edema in Swiss albino rat assessed as reduction in volume of paw edema measured after 2 hr relative to control; assay type: functional; set-up: scale not given: the % may be the effect or the level left
Rattus norvegicus [20] = experiment: Anti-inflammatory activity against Carrageenan-induced paw edema in PO dosed Wistar albino rat assessed as inhibition of edema measured after 4 hr relative to control; assay type: functional; set-up: scale not given: the % may be the effect or the level left
Rattus norvegicus [21] = experiment: Anti-inflammatory activity against Carrageenan-induced paw edema in PO dosed Wistar albino rat assessed as inhibition of edema measured after 2 hr relative to control; assay type: functional; set-up: scale not given: the % may be the effect or the level left
Rattus norvegicus [22] = experiment: Anti-inflammatory activity in Carrageenan-induced paw edema in Wistar albino rat assessed as inhibition of edema measured after 3 hrs relative to control; assay type: functional
Rattus norvegicus [23] = experiment: Anti-inflammatory activity in Carageenan-induced foot paw edema in Swiss albino rat assessed as reduction in volume of paw edema measured after 6 hr relative to control; assay type: functional; set-up: scale not given: the % may be the effect or the level left

IC50 [1]: 9.51 µM
IC50 [2]: 0.98 µM
IC50 [5]: 11.6 µM
Compound: COc1ccc(-c2nc3c(C(N)=O)cccc3[nH]2)cc1
inhibition (INH) (RAW264.7 [3]): 91%
inhibition (INH) (RAW264.7 [4]): 91%

IC50 [6]: 9.85 µM
IC50 [7]: 0.32 µM
IC50 [9]: 1.02 µM
Compound: O=C1c2ccccc2C(=O)N1c1nc2cc([N+](=O)[O-])ccc2n1Cc1ccc(-c2ccccc2)cc1
Activity (Rattus norvegicus [8]): 81.88%

Compound: c1cc2[nH]c(-c3cscn3)nc2cn1
Activity (THP-1): 40%

Compound: COc1ccc2c(c1)c(CC(=O)O)c(C)n2C(=O)c1ccc(Cl)cc1 [INDOMETHACIN]
Activity (Rattus norvegicus [10]): 43.3%
Activity (Rattus norvegicus [11]): 50.81%
Activity (Rattus norvegicus [12]): 1.96 mm
Activity (Rattus norvegicus [13]): 40%
Activity (Mus musculus): 47.76%
Activity (Rattus norvegicus [14]): 57.79%
Activity (Rattus norvegicus [8]): 79.41%
inhibition in vivo at 30 mg/kg (Rattus norvegicus [15]): 71.2%
Activity (Rattus norvegicus [16]): 74.56%
UI (Rattus norvegicus [17]): 20.2
Activity (Rattus norvegicus [18]): 33.15%
Activity (Rattus norvegicus [19]): 56.8%
Activity (Rattus norvegicus [20]): 30.95%
Activity (Rattus norvegicus [21]): 28.89%
inhibition (INH) (Rattus norvegicus [22]): 86.7%
Activity (Rattus norvegicus [23]): 85.9%
